Three compounds from patent publication US4668680A, “5-amino-6,8-difluoroquinolones as antibacterial agents” (Warner-Lambert Company, priority 1985, dated 1987) can be followed below.

In brackets after ≈: the same amount, converted by molar mass. Like-named read-outs stand apart in the source and are kept apart here.

Assay in all cases: in vitro antibacterial activity, microtitration dilution method
Type in all cases: cell-based

Assay [1] concerns Streptococcus faecalis MGH-2. As to conditions: Enterococcus faecalis. The text has this:
(§1) The compounds of the invention display antibacterial activity as shown in the following table when tested by the microtitration dilution method as described in Heifetz, et al, Antimicr. Agents & Chemoth., 6, 124 (1974), which is incorporated herein by reference. […]

In assay [2] the test system is Pseudomonas aeruginosa UI-18.
Description: as §1

Assay [3] deals with Klebsiella pneumoniae MGH-2.
Description: as §1

Assay [4] deals with Streptococcus pneumonia SV-1. As to conditions: Streptococcus pneumoniae.
Description: as §1

The subject of assay [5] is Staphylococcus aureus H 228.
Description: as §1

In assay [6] the test system is Staphylococcus aureus UC-76.
Description: as §1

Assay [7] has as its system Proteus rettgeri M 1771. As to conditions: Providencia rettgeri.
Description: as §1

For assay [8], the system named is Streptococcus pyogenes C-203.
Description: as §1

Assay [9] has as its system Escherichia coli Vogel. To be noted: read-out: Minimal Inhibitory Concentration MIC.
Description: as §1

The test system of assay [10] is Enterobacter cloacae MA 2646. As to conditions: MA2646, read-out: Minimal Inhibitory Concentration MIC.
Where [11] appears, read: MGH2, Streptococcus faecalis MGH-2, read-out: Minimal Inhibitory Concentration MIC.
Setting [12] is: UI18, Pseudomonas aeruginosa UI-18, read-out: Minimal Inhibitory Concentration MIC.
Where [13] appears, read: MGH2, Klebsiella pneumoniae MGH-2, read-out: Minimal Inhibitory Concentration MIC.
Where [14] appears, read: SV1, Streptococcus pneumonia SV-1, read-out: Minimal Inhibitory Concentration MIC.
[15] abbreviates: H228, Staphylococcus aureus H 228, read-out: Minimal Inhibitory Concentration MIC.
[16] abbreviates: UC76, Staphylococcus aureus UC-76, read-out: Minimal Inhibitory Concentration MIC.
Setting [17] is: M1771, Proteus rettgeri M 1771, read-out: Minimal Inhibitory Concentration MIC.
Where [18] appears, read: C203, Streptococcus pyogenes C-203, read-out: Minimal Inhibitory Concentration MIC.

With `O=C(O)c1cn(C2CC2)c2cc(N3CCNCC3)c(F)cc2c1=O` [Ciprofloxacin, 1-cyclopropyl-6-fluoro-1,4-dihydro-4-oxo-7-piperazinyl-3-quinoline-carboxylic acid, reference compound], the MIC was determined as 0.8 µg/mL (≈ 2.41 µM) in assay [1] (MGH2, read-out: Minimal Inhibitory Concentration MIC); 0.4 µg/mL (≈ 1.21 µM) in assay [2] (Pseudomonas aeruginosa, UI18, read-out: Minimal Inhibitory Concentration MIC); 0.1 µg/mL (≈ 0.302 µM) in assay [3] (Klebsiella pneumoniae, MGH2, read-out: Minimal Inhibitory Concentration MIC); 1.6 µg/mL (≈ 4.83 µM) in [4] (SV1, read-out: Minimal Inhibitory Concentration MIC); 3.1 µg/mL (≈ 9.36 µM) in assay [5] (Staphylococcus aureus, H228, read-out: Minimal Inhibitory Concentration MIC); 0.2 µg/mL (≈ 0.604 µM) in [6] (Staphylococcus aureus, UC76, read-out: Minimal Inhibitory Concentration MIC). The MIC in [7] (M1771, read-out: Minimal Inhibitory Concentration MIC) stood at 0.1 µg/mL (≈ 0.302 µM); in assay [8] (Streptococcus pyogenes, C203, read-out: Minimal Inhibitory Concentration MIC) it was 0.8 µg/mL (≈ 2.41 µM); in assay [9], 0.05 µg/mL (≈ 0.151 µM).

As to `Nc1c(F)c(N2CCNCC2)c(F)c2c1c(=O)c(C(=O)O)cn2C1CC1` [Ex. 1, 5-amino-1-cyclopropyl-6,8-difluoro-1,4-dihydro-4-oxo-7-(1-piperazinyl)-3-quinolinecarboxylic acid], the MIC in [10] turned out to be 0.013 µg/mL (≈ 0.0357 µM); in assay [1] (setting [11]), 0.05 µg/mL (≈ 0.137 µM); in assay [2] (setting [12]), 0.025 µg/mL (≈ 0.0686 µM); in assay [3] (setting [13]), 0.025 µg/mL (≈ 0.0686 µM); in assay [4] (setting [14]), 0.05 µg/mL (≈ 0.137 µM); in [5] (setting [15]), 0.05 µg/mL (≈ 0.137 µM). Moreover, the MIC in [6] (setting [16]) is 0.013 µg/mL (≈ 0.0357 µM); in assay [7] (setting [17]), 0.05 µg/mL (≈ 0.137 µM); in assay [8] (setting [18]), 0.2 µg/mL (≈ 0.549 µM); in assay [9], 0.013 µg/mL (≈ 0.0357 µM).

As to `CN1CCN(c2c(F)c(N)c3c(=O)c(C(=O)O)cn(C4CC4)c3c2F)CC1` [Ex. 2, 5-Amino-1-cyclopropyl-6,8-difluoro-1,4-dihydro-7-(4-methyl-1-piperazinyl)-4-oxo-3-quinolinecarboxylic acid], the MIC in [10] worked out at 0.013 µg/mL (≈ 0.0344 µM); in assay [1] (setting [11]), 0.1 µg/mL (≈ 0.264 µM); in [2] (setting [12]), 0.1 µg/mL (≈ 0.264 µM); in [3] (setting [13]) it was 0.013 µg/mL (≈ 0.0344 µM); in [4] (setting [14]), 0.2 µg/mL (≈ 0.529 µM); in assay [5] (setting [15]), 0.05 µg/mL (≈ 0.132 µM). Also, the MIC in assay [6] (setting [16]) worked out at 0.025 µg/mL (≈ 0.0661 µM); in [7] (setting [17]), 0.05 µg/mL (≈ 0.132 µM); in [8] (setting [18]), 0.4 µg/mL (≈ 1.06 µM); in assay [9] it was 0.013 µg/mL (≈ 0.0344 µM).
